The structures appear in SMILES notation. “Also recorded” adds a separate entry of the source.

One data set relates to B16 melanoma cells. Put plainly: melanin formation suppression test, visual whitening and cell mass volume. The class given is cell-based, mouse. Further details: key to level of whitening: whitening high→++; whitening moderate→+; somewhat whitened→+−; no whitening→−. The following applies: 5 days; for level of whitening: visual evaluation; for change in cell mass volume: visual, cytotoxicity index. As to the method:
A melanin formation suppression test was performed as follows using mouse melanoma cells. First, 2×10^4 B16 melanoma cells were plated in a 35 mm diameter dish containing Eagle's minimum nutrition medium (3 ml) supplemented with 10% (v/v) fetal bovine serum, and cultured in a carbon dioxide incubator adjusted to 5% (v/v) carbon dioxide gas at 37° C. for about 24 hr. Then, pure water or a sample dissolved in pure water was added thereto to a final concentration of 0.1 mM, 1.0 mM or 10 mM. As a positive control, kojic acid (manufactured by Sigma Ltd.) was added to the same concentration. The cells were cultured for 5 more days under the same conditions, treated with trypsin, and centrifuged to collect the cells in a 1.5 ml Eppendorf. The level of whitening of the cells was visually evaluated, and indicated: whitening high→++; whitening moderate→+; somewhat whitened→+−; no whitening→−. Simultaneously, changes in the cell mass volume was visually evaluated and used as a cytotoxicity index.

The subject of another data set is human normal melanocytes. The data set is described as follows: melanin formation suppression test in human melanocytes (L-DOPA, absorbance 495 nm). The class given is cell-based. Conditions: 5 days, relative value, without addition of sample = 100. As to the method:
A melanin formation suppression test was performed using human melanocytes (manufactured by KURABO INDUSTRIES LTD.). That is, human normal melanocytes amplified in Medium 254 medium (human melanocyte medium added with HMGS, manufactured by KURABO INDUSTRIES LTD.) was added to a 96 well plate at 10^4 cells per well, and cultured in a carbon dioxide incubator adjusted to 5% (v/v) carbon dioxide gas at 37° C. for about 24 hr. Then, pure water or a sample (conagenin) dissolved in pure water was added thereto to a final concentration of 0.1 mM, 1.0 mM or 10 mM. As a positive control, kojic acid (manufactured by Sigma Ltd.) was added to the same concentration. The cells were cultured for 5 more days under the same conditions. To the recovered cells was added 50 μl of cell suspension (PBS buffer containing Triton X-100 at 0.1% (v/v)). After thorough suspending, the suspension was stood at 4° C. for 1 hr. Thereto was added 50 μl of 10 mM L-DOPA (manufactured by Nacalai Tesque), and the mixture was incubated at 37° C. for 1 hr. Thereafter, the absorbance at 495 nm was measured by a plate reader (multiscanplus MKII, manufactured by Japan Flow Laboratory), and the melanin formation amount was measured (shown in a relative value to the value without addition of sample as 100).

`O=c1cc(CO)occ1O` [kojic acid, reference compound]: the level of whitening result with B16 melanoma cells (0.1 mM) was “+−”; with B16 melanoma cells (1 mM), “+”. Moreover, the figures for the “change in cell mass volume” value in the data set on B16 melanoma cells (0.1 mM), with B16 melanoma cells (1 mM) and with B16 melanoma cells (10 mM) were “none”, “none” and “cell death occurred; also recorded: yes (cell death)”, respectively. Moreover, the melanin formation amount in the data set with human normal melanocytes (100 μM) was found to be 105; in the data set on human normal melanocytes (1 mM), 88.
